# Data: paper PMC3566143, “Pantothenamides Are Potent, On-Target Inhibitors of Plasmodium falciparum Growth When Serum Pantetheinase Is Inactivated” (PLoS ONE, 2013)
# Where two headings read alike, the source gives them in different places.
# Test system: erythrocytic stage P. falciparum parasites (strain 3D7)
# Experiment: SYBR Green I-based in vitro growth assay (96 h)
# Type: cell-based, Plasmodium falciparum
# Settings: for IC50: Plasmodium falciparum, 96 h
# Procedure: Erythrocytic stage P. falciparum parasites (strain 3D7) were maintained within human erythrocytes in continuous culture essentially as described previously, [25]. P. falciparum-infected erythrocytes were routinely cultured in RPMI 1640 medium supplemented with 25 mM HEPES, 20 mM D-glucose, 200 µM hypoxanthine, 24 mg/L gentamycin and Albumax II (0.6%, w/v), which, hereafter is referred to as Albumax-complete RPMI. For several days prior to carrying out the assays testing the effect of compounds on the growth of P. falciparum in medium supplemented with human serum (instead of Albumax II), the parasites were cultured in the same medium mentioned above, except that human serum (10%, v/v, pooled from different blood donors) was used rather than Albumax II. This medium is hereafter referred to as human serum-complete RPMI.
# The in vitro antiplasmodial activity of test compounds was determined using the malaria SYBR Green I-based fluorescence assay described by Smilkstein et al., with minor modifications. Briefly, P. falciparum-infected erythrocytes were incubated in culture medium containing two-fold dilutions of the test compounds in 96-well microtiter plates. Assays were initiated with ring-stage P. falciparum-infected erythrocytes at a hematocrit and parasitemia of 1%. Wells containing infected erythrocytes in the presence of chloroquine (0.25–2 µM) served as zero growth controls and wells containing infected erythrocytes in the absence of chloroquine or test compounds served as 100% parasite growth controls. Plates were incubated at 37°C under an atmosphere of 96% nitrogen, 3% carbon dioxide and 1% oxygen for 96 h, before 100 µL from each well was mixed with 100 µL of SYBR Safe DNA gel stain (0.2 µL/mL) in 20 mM Tris, pH 7.5, 5 mM ethylenediaminetetraacetic acid (EDTA), 0.008% (w/v) saponin, 0.08% (v/v) Triton X-100, in a second 96-well microtitre plate. Fluorescence was measured using a FLUOstar OPTIMA multidetection microplate reader from BMG LABTECH with excitation and emission wavelengths of 490 and 520 nm, respectively. The 50% inhibitory concentration (IC50) of each test compound under each test condition was calculated by fitting the data to a sigmoidal curve (typically y = a/(1+ (x/x0)^b) using nonlinear least squares regression (SigmaPlot, Systat Software) and averaging the IC50 estimates from independent experiments.
# The antiplasmodial activity of test compounds was assessed in media that had been subjected to different pre-incubations. “Fresh” medium refers to medium that was stored for a maximum of 48 h at 4°C, and incubated at 37°C for a maximum of 1 h, prior to use. “Aged” medium refers to medium that was stored for a minimum of one week at 4°C and incubated intermittently at 37°C, or medium incubated continuously at 37°C for 40 h soon after preparation. As indicated at the relevant positions within the “Results” section, for some experiments the fresh medium used was, more specifically, medium used immediately following preparation, and the aged medium used was, more specifically, medium that was incubated at 37°C for 40 h immediately prior to use.
compound,measurement,setting,value
CC(C)CNC(=O)CCNC(=O)[C@H](O)C(C)(C)CO [Compound 12],IC50,"3D7, 96 h, fresh Albumax-complete RPMI, 1 µM pantothenate, read-out: IC50 against P. falciparum, fresh medium, 1 μM pantothenate",133 ± 12 µM
same,IC50,"3D7, aged Albumax-complete RPMI (37°C for 40 h), 1 µM pantothenate, read-out: IC50 against P. falciparum, aged medium, 1 μM pantothenate",1.1 ± 0.1 µM
same,IC50,"3D7, human serum (10%, v/v) medium incubated at 37°C for 40 h, read-out: IC50 against P. falciparum in aged human serum-complete RPMI",22 ± 10 µM
same,increase in potency after second ageing of Albumax II-supplemented aged medium,aged + Albumax II + 40 h at 37°C versus aged + fresh Albumax II,> 65 fold
same,effect of recombinant human pantetheinase on antiplasmodial effect in aged medium,aged Albumax-complete RPMI + 100 ng/mL recombinant human pantetheinase added at start of assay,alleviated the antiplasmodial effect
same,"fold-increase in IC50 following supplementation with 100 µM pantothenate, aged medium","aged Albumax-complete RPMI, IC50 at 100 µM pantothenate / IC50 at 1 µM pantothenate",21±1 times
same,effect on parasite growth in aged Albumax-complete RPMI with additional Albumax II,"aged medium + additional Albumax II (0.6%, w/v) immediately prior to assay, 200 µM",little-to-no effect on parasite growth
same,effect on parasite growth at 200 µM in aged Albumax-complete RPMI,"aged medium, 200 µM",inhibits parasite growth completely
same,"fold-increase in IC50 following supplementation with 100 µM pantothenate, fresh medium","fresh Albumax-complete RPMI, IC50 at 100 µM pantothenate / IC50 at 1 µM pantothenate",1.3±0.2 times
same,effect on parasite growth in fresh human serum-complete RPMI,"human serum (10%, v/v), fresh medium, up to 200 µM (highest concentration tested)",little-to-no effect on parasite growth
